Assay results reported in publication PMC11191687.

What was measured:
[1] = as series B (acyl azide from hydrazide, MeCN cosolvent), isolated after prep HPLC; conditions: the molecule shown is the open-chain precursor, aq phosphate buffer (6 M GdmCl) diluted with 2 vol 50% MeCN/water, 4.0 mM, 2 steps
[2] = as series A (acyl azide from hydrazide, biphasic EtOAc/buffer), isolated after prep HPLC; conditions: 21-membered ring, aq phosphate buffer (6 M GdmCl) / EtOAc biphasic, 3.0 mM, 0.25 h, 2 steps
[3] = head-to-tail lactamisation of unprotected peptide acyl azide (from C-terminal hydrazide, 20 equiv NaNO2, pH 3, -15 C, then NaHCO3 to pH ~7), biphasic EtOAc/buffer; conditions: 21-membered ring, aq phosphate buffer (6 M GdmCl, 50 mM NaH2PO4, 1.5 mM EDTA) / EtOAc biphasic, 3.0 mM, 0.25 h, 2 steps
[4] = from CC(C)C[C@H](NC(=O)[C@H](CC(C)C)N(C)C(=O)[C@H](C)NC(=O)[C@H](Cc1ccc(O)c([N+](=O)[O-])c1)NC(=O)[C@H](CC(C)C)N(C)C(=O)[C@H](C)N)C(=O)N[C@@H](Cc1ccccc1)C(=O)N=[N+]=[N-]
[5] = from C=CC[C@H](NC(=O)[C@H](CC(C)C)NC(=O)[C@H](CC(C)C)N(C)C(=O)[C@@H](NC(=O)[C@H](Cc1ccc(O)c([N+](=O)[O-])c1)NC(=O)[C@H](CC(C)C)N(C)C(=O)[C@@H](N)Cc1c[nH]c2ccccc12)[C@@H](C)O)C(=O)N=[N+]=[N-]

CC[C@H](C)[C@H](NC(=O)CNC(=O)[C@H](CO)NC(=O)[C@@H]1CCCN1C(=O)[C@@H](NC(=O)[C@@H]1CCCN1)C(C)C)C(=O)N[C@@H](Cc1ccccc1)C(=O)NCC(=O)N=[N+]=[N-] [H-Pro-Val-Pro-Ser-Gly-Ile-Phe-Gly-N3]
ring closure, yield over several steps ([1]; 24-membered ring): 42%

CC(C)C[C@H](NC(=O)[C@H](CCCN)NC(=O)[C@@H](NC(=O)[C@H](Cc1ccc(O)cc1)NC(=O)[C@H](CCC(N)=O)NC(=O)[C@H](CC(N)=O)NC(=O)[C@@H](Cc1ccccc1)NC(=O)[C@H](Cc1ccccc1)NC(=O)[C@@H]1CCCN1C(=O)[C@H](N)Cc1ccccc1)C(C)C)C(=O)N=[N+]=[N-] [H-D-Phe-Pro-Phe-D-Phe-Asn-Gln-Tyr-Val-Orn-Leu-N3]
ring closure, yield over several steps ([1]; 30-membered ring, 0.25 h): 68%

CCCCC(C)CCC(=O)N[C@@H](CCN)C(=O)N[C@H](C(=O)N[C@@H](CCN)C(=O)N[C@@H](CCN)C(=O)N[C@@H](CCN)C(=O)N[C@H](CC(C)C)C(=O)N[C@@H](CC(C)C)C(=O)N[C@@H](CCN)C(=O)N[C@@H](CCN)C(=O)N[C@H](C(=O)N=[N+]=[N-])[C@@H](C)O)[C@@H](C)O (some centres unmarked)
ring closure, yield over several steps ([1]; 23-membered ring): 3%

CC(C)C[C@H](NC(=O)[C@H](CCCN)NC(=O)[C@@H](NC(=O)[C@@H]1CCCN1C(=O)[C@@H](Cc1ccccc1)NC(=O)[C@H](CC(C)C)NC(=O)[C@H](CCCN)NC(=O)[C@@H](NC(=O)[C@@H]1CCCN1C(=O)[C@H](N)Cc1ccccc1)C(C)C)C(C)C)C(=O)N=[N+]=[N-] [H-D-Phe-Pro-Val-Orn-Leu-D-Phe-Pro-Val-Orn-Leu-N3]
ring closure, yield over several steps ([1]; 30-membered ring): 63%

CC(=O)N[C@@H](Cc1ccccc1)C(=O)N[C@@H](CCCN)C(=O)N1CCC[C@H]1C(=O)N[C@H](Cc1ccc(O)cc1)C(=O)N[C@@H](Cc1c[nH]c2ccccc12)C(=O)N[C@@H](CCCNC(=N)N)C(=O)N=[N+]=[N-] [Ac-Phe-Orn(cyclises via side chain)-Pro-D-Tyr-Trp-Arg-N3]
ring closure, yield over several steps ([1]; 18-membered ring): 62%

CC(C)C[C@@H]1NC(=O)[C@H](CC(C)C)N(C)C(=O)[C@H](C)NC(=O)[C@H](Cc2ccc(O)c([N+](=O)[O-])c2)NC(=O)[C@H](CC(C)C)N(C)C(=O)[C@H](C)NC(=O)[C@H](Cc2ccccc2)NC1=O [H-Ala-N-Me-Leu-Tyr(3-NO2)-Ala-N-Me-Leu-Leu-Phe-N3]
ring closure, yield over several steps [2, 4]: 40%
ring closure, conversion by HPLC [3, 4]: 88%

CC(C)C[C@H](NC(=O)[C@H](Cc1ccc(O)cc1)NC(=O)[C@@H]1CCCN1C(=O)CN)C(=O)N[C@@H](C)C(=O)N=[N+]=[N-] [H-Gly-Pro-Tyr-Leu-Ala-N3]
ring closure, yield over several steps ([1]; 15-membered ring): 51%

C=CC[C@@H]1NC(=O)[C@H](CC(C)C)NC(=O)[C@H](CC(C)C)N(C)C(=O)[C@H]([C@@H](C)O)NC(=O)[C@H](Cc2ccc(O)c([N+](=O)[O-])c2)NC(=O)[C@H](CC(C)C)N(C)C(=O)[C@H](Cc2c[nH]c3ccccc23)NC1=O [H-Trp-N-Me-Leu-Tyr(3-NO2)-Thr-N-Me-Leu-Leu-allylGly-N3]
ring closure, yield over several steps [2, 5]: 35%
ring closure, conversion by HPLC [3, 5]: 78%

CSCC[C@H](NC(=O)[C@@H](NC(=O)[C@H](CC(C)C)NC(=O)CNC(=O)[C@@H]1CCCN1C(=O)[C@@H](NC(=O)CNC(=O)[C@@H](N)Cc1ccccc1)C(C)C)C(C)C)C(=O)N=[N+]=[N-] [H-Phe-Gly-Val-Pro-Gly-Leu-Val-Met-N3]
ring closure, yield over several steps ([1]; 24-membered ring): 12%
